For one assay, the target named is GII.17 VLP. It counts as binding, norovirus. The settings on record: 100 μM peptide on SA chip; for Kd: GII.17 VLP 1, 0.1, 0.01, 0.001 mg/mL, KD calculated from ka and kd; for ka / kd: GII.17 VLP; for ka: association 90 sec; for kd: dissociation 60 sec. The method, then:
(§1) The apparatus used was BLItz™ (manufactured by ForteBio). The tip of SA chip (manufactured by ForteBio) was kept in contact with purified water for 1 minute for hydration and was then kept in contact with a 1% BSA aqueous solution for 1 hour for blocking. The SA chip subjected to blocking treatment was set to the measuring unit of the BLItz™ main body, and measurement was performed according to the program shown in Table 16. The peptides of SEQ ID NOs: 103, 167, 205, 263, 283, 288, and 302 were used, and the concentration was adjusted to 100 μM. The concentrations of each of the GII.3 and GII.17 VLPs were adjusted to 1, 0.1, 0.01, and 0.001 mg/mL. The measurement data were analyzed using the attached software, and the KD value was calculated based on the Ka and Kd values.

A further assay concerns the target GII.3 VLP. It counts as binding, norovirus. The settings on record: 100 μM peptide on SA chip; for Kd: GII.3 VLP 1, 0.1, 0.01, 0.001 mg/mL, KD calculated from ka and kd; for ka / kd: GII.3 VLP; for ka: association 90 sec; for kd: dissociation 60 sec. The method, then:
as §1

RFLVPVVKVM [No.103]: at GII.17 VLP, the Kd (commonly the constant that tells how readily two partners part at equilibrium) is 8.13 nM, the “ka” value was determined as 1.38e+06 M⁻¹ s⁻¹ and the “kd” value was determined as 0.0112 s⁻¹. At GII.3 VLP, the Kd is 8.07 nM, the “ka” value is 2.1e+06 M⁻¹ s⁻¹ and the “kd” value was determined as 0.017 s⁻¹.
For FVWRRRAGLY [No.167], on GII.17 VLP, the Kd is 0.696 nM, the “ka” value was found to be 1.59e+06 M⁻¹ s⁻¹ and the “kd” value was determined as 0.00111 s⁻¹. Moreover, at GII.3 VLP, the dissociation constant (Kd) is 1.39 nM, the “ka” value came to 3.14e+06 M⁻¹ s⁻¹ and the “kd” value was 0.00435 s⁻¹.
Turning to FVWSRRTGLY [No.205], at GII.17 VLP, the dissociation constant Kd was 109 nM, the “ka” value is 169000 M⁻¹ s⁻¹ and the “kd” value turned out to be 0.0184 s⁻¹. For the same sequence, on GII.3 VLP, the Kd was 31.6 nM, the “ka” value was found to be 1.03e+06 M⁻¹ s⁻¹ and the “kd” value stood at 0.001 s⁻¹.
As to CKARSARGVS [No.288], on GII.17 VLP, the Kd is 12 nM, the “ka” value came to 620000 M⁻¹ s⁻¹ and the “kd” value was found to be 0.00747 s⁻¹. On GII.3 VLP, the dissociation constant Kd is 6.86 nM, the “ka” value was 2.09e+06 M⁻¹ s⁻¹ and the “kd” value was 0.0143 s⁻¹.
Regarding ANYRWSRSIK [No.263], on GII.17 VLP, the Kd was 19.1 nM, the “ka” value came out at 140000 M⁻¹ s⁻¹ and the “kd” value was 0.00865 s⁻¹. Also, at GII.3 VLP, the Kd is 57.5 nM, the “ka” value was 851000 M⁻¹ s⁻¹ and the “kd” value came to 0.049 s⁻¹.
As to VWWGRRISRF [No.302], at GII.17 VLP, the Kd is 28.4 nM, the “ka” value is 2.28e+06 M⁻¹ s⁻¹ and the “kd” value came to 0.0648 s⁻¹.
With RSMSLHVSMT [No.283], at GII.17 VLP, the equilibrium dissociation constant (Kd) is 1.39 nM, the “ka” value was 994000 M⁻¹ s⁻¹ and the “kd” value turned out to be 0.000138 s⁻¹. Moreover, at GII.3 VLP, the Kd was 0.909 nM, the “ka” value is 7.86e+06 M⁻¹ s⁻¹ and the “kd” value is 0.00715 s⁻¹.

Values taken from patent US12378287B2 (priority 2019, dated 2025).
